For this assay, the system named is HIV-1 (H9IIIB strain). The experiment in a line: Cell-Based HIV Infection Assay Using a Reporter (MT4-GFP cells). Conditions: Human immunodeficiency virus 1, inflection point (IP) of viral growth inhibition; MT4-GFP cells infected with HIV-1 H9IIIB; 50% normal human serum; mean of at least two independent experiments; read-out: Cell Based IP (50% NHS). The procedure, abridged:
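Inflection point from a 4-parameter curve of % viral growth inhibition, normalised to DMSO and triple-drug controls, using the 48 h/24 h ratio of GFP-positive cells (R0). MT4-GFP cells pre-infected 24 h with HIV-1 H9IIIB at low MOI; compounds tested in 50% normal human serum, 0.4% DMSO; mean of ≥2 experiments.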

Take `N[C@H](C(=O)Nc1cccc(F)c1CC[C@H]1CN[C@@H]2CCCS(=O)(=O)N1C2)[C@@H](c1ccc(F)cc1)[C@H]1CC[C@H](O)CC1` [Example 202, (βR)-N-(2-{2-[(6R,9S)-2,2-dioxido-2-thia-1,7-diazabicyclo[4.3.1]dec-9-yl]ethyl}-3-fluorophenyl)-4-fluoro-β-[(1r,4R)-4-hydroxycyclohexyl]-L-phenylalaninamide]: the EC50 was found to be 89 nM.
On to `COC(=O)N[C@H](C(=O)Nc1cccc(C(F)(F)F)c1CC[C@H]1CN[C@@H]2CCCS(=O)(=O)N1C2)[C@@H](c1ccc(F)cc1)C1C[C@@H](C)O[C@@H](C)C1` (stereo partly drawn) [Example 203, methyl [(1S,2R)-2-[(2R,6S)-2,6-dimethyltetrahydro-2H-pyran-4-yl]-1-{[2-{2-[(6R,9S)-2,2-dioxido-2-thia-1,7-diazabicyclo[4.3.1]dec-9-yl]ethyl}-3-(trifluoromethyl)phenyl]carbamoyl}-2-(4-fluorophenyl)ethyl]carbamate], for which the EC50 was 150 nM.
On to `C[C@@H]1CC([C@H](c2ccc(F)cc2)[C@H](N)C(=O)Nc2cccc(C(F)(F)F)c2CC[C@H]2CN[C@@H]3CCCS(=O)(=O)N2C3)C[C@H](C)O1` (stereo partly drawn) [Example 204, (βR)-β-[(2R,6S)-2,6-dimethyltetrahydro-2H-pyran-4-yl]-N-[2-{2-[(6R,9S)-2,2-dioxido-2-thia-1,7-diazabicyclo[4.3.1]dec-9-yl]ethyl}-3-(trifluoromethyl)phenyl]-4-fluoro-L-phenylalaninamide], for which the EC50 came out at 230 nM.
On to `CO[C@H]1CC[C@](c2ccc(F)cc2)([C@H](N)C(=O)Nc2cccc(F)c2CC[C@H]2CN[C@@H]3CCCS(=O)(=O)N2C3)CC1` [Example 205, (2S)-2-amino-N-(2-{2-[(6R,9S)-2,2-dioxido-2-thia-1,7-diazabicyclo[4.3.1]dec-9-yl]ethyl}-3-fluorophenyl)-2-[trans-1-(4-fluorophenyl)-4-methoxycyclohexyl]ethanamide], for which the EC50 came to 130 nM.
For `COC(=O)N[C@H](C(=O)Nc1cccc(F)c1CC[C@H]1CN[C@@H]2CCCS(=O)(=O)N1C2)[C@@H](c1ccc(F)cc1)c1cnc(OC(C)C)nc1` [Example 206, methyl [(1S)-2-[(2-{2-[(6R,9S)-2,2-dioxido-2-thia-1,7-diazabicyclo[4.3.1]dec-9-yl]ethyl}-3-fluorophenyl)amino]-1-{(S)-(4-fluorophenyl)[2-(1-methylethoxy)pyrimidin-5-yl]methyl}-2-oxoethyl]carbamate], the EC50 is 16 nM.
On to `CO[C@H]1CC[C@H]([C@H](c2ccc(Cl)cc2)[C@H](N)C(=O)N[C@H]2CCCC[C@@H]2CC[C@H]2CN[C@@H]3CCCS(=O)(=O)N2C3)CC1` [Example 207, (βR)-4-chloro-N-[(1S,2R)-2-{2-[(6R,9S)-2,2-dioxido-2-thia-1,7-diazabicyclo[4.3.1]dec-9-yl]ethyl}cyclohexyl]-β-[(1r,4R)-4-methoxycyclohexyl]-L-phenylalaninamide], for which the EC50 is 40 nM.
As for `CC1(OC(=O)N2CCC([C@H](c3ccc(Cl)cc3)[C@H](N)C(=O)N[C@H]3CCC[C@@H]3CC[C@H]3CN[C@@H]4CCCS(=O)(=O)N3C4)CC2)CC1` [Example 208, 1-methylcyclopropyl 4-[(1R,2S)-2-amino-1-(4-chlorophenyl)-3-{[(1S,2R)-2-{2-[(6R,9S)-2,2-dioxido-2-thia-1,7-diazabicyclo[4.3.1]dec-9-yl]ethyl}cyclopentyl]amino}-3-oxopropyl]piperidine-1-carboxylate], the EC50 was determined as 100 nM.
Regarding `COC(=O)N[C@H](C(=O)Nc1cccc(F)c1CC[C@H]1CN[C@@H]2CCCS(=O)(=O)N1C2)[C@]1(c2ccc(F)cc2)CC[C@@H](OC)CC1` [Example 210, methyl {(1S)-2-[(2-{2-[(6R,9S)-2,2-dioxido-2-thia-1,7-diazabicyclo[4.3.1]dec-9-yl]ethyl}-3-fluorophenyl)amino]-1-[trans-1-(4-fluorophenyl)-4-methoxycyclohexyl]-2-oxoethyl}carbamate], the EC50 was found to be 16 nM.
With `CCO[C@H]1CC[C@H]([C@H](c2ccc(F)cc2)[C@H](NC(=O)OC)C(=O)Nc2cccc(F)c2CC[C@H]2CN[C@@H]3CCCS(=O)(=O)N2C3)CC1` [Example 211, methyl {(1S)-2-[(2-{2-[(6R,9S)-2,2-dioxido-2-thia-1,7-diazabicyclo[4.3.1]dec-9-yl]ethyl}-3-fluorophenyl)amino]-1-[(R)-[(1r,4R)-4-ethoxycyclohexyl](4-fluorophenyl)methyl]-2-oxoethyl}carbamate], the EC50 stood at 6.4 nM.
As for `CCO[C@H]1CC[C@H]([C@H](c2ccc(F)cc2)[C@H](N)C(=O)Nc2cccc(F)c2CC[C@H]2CN[C@@H]3CCCS(=O)(=O)N2C3)CC1` [Example 212, (βR)-N-(2-{2-[(6R,9S)-2,2-dioxido-2-thia-1,7-diazabicyclo[4.3.1]dec-9-yl]ethyl}-3-fluorophenyl)-β-[(1r,4R)-4-ethoxycyclohexyl]-4-fluoro-L-phenylalaninamide], the EC50 worked out at 7 nM.
As to `N[C@H](C(=O)Nc1cccc(F)c1CC[C@H]1CN[C@@H]2CCCS(=O)(=O)N1C2)[C@@H](c1ccc(F)cc1)C1CCCOC1` (stereo partly drawn) [Example 214, (βR)-N-(2-{2-[(6R,9S)-2,2-dioxido-2-thia-1,7-diazabicyclo[4.3.1]dec-9-yl]ethyl}-3-fluorophenyl)-4-fluoro-β-(tetrahydro-2H-pyran-3-yl)-L-phenylalaninamide], the EC50 worked out at 18 nM.
Take `CC1(C)C[C@@H]([C@H](c2ccc(Cl)cc2)[C@H](N)C(=O)Nc2cncc(F)c2CC[C@H]2CN[C@@H]3CCCS(=O)(=O)N2C3)CCO1` [Example 215, (βR)-4-chloro-β-[(4S)-2,2-dimethyltetrahydro-2H-pyran-4-yl]-N-(4-{2-[(6R,9S)-2,2-dioxido-2-thia-1,7-diazabicyclo[4.3.1]dec-9-yl]ethyl}-5-fluoropyridin-3-yl)-L-phenylalaninamide]: the EC50 was determined as 8 nM.
Take `NC(C(=O)Nc1cccc(F)c1CC[C@H]1CN[C@@H]2CCCS(=O)(=O)N1C2)[C@@H](c1ccc(Cl)cc1)[C@H]1CC[C@H](O)CC1` (stereo partly drawn) [Example 217, (βR)-4-chloro-N-(2-{2-[(6R,9S)-2,2-dioxido-2-thia-1,7-diazabicyclo[4.3.1]dec-9-yl]ethyl}-3-fluorophenyl)-β-[(1r,4R)-4-hydroxycyclohexyl]-L-phenylalaninamide]: the EC50 stood at 13 nM.
As to `COC(=O)N[C@H](C(=O)Nc1cccc(F)c1CCC1CNC2CCCS(=O)(=O)N1C2)[C@@H](c1ccc(F)cc1)c1ccc(C(F)(F)F)cc1` (stereo partly drawn) [Example 224, Methyl [(1S)-2-({2-[2-(2,2-dioxido-2-thia-1,7-diazabicyclo[4.3.1]dec-9-yl)ethyl]-3-fluorophenyl}amino)-1-{(R)-(4-fluorophenyl)[4-(trifluoromethyl)phenyl]methyl}-2-oxoethyl]carbamate], the EC50 is 5.7 nM.
Regarding `N[C@H](C(=O)Nc1cccc(F)c1CCC1CNC2CCCS(=O)(=O)N1C2)[C@@H](c1ccc(F)cc1)c1ccc2c(c1)CCC2` (stereo partly drawn) [Example 225, (2S,3S)-2-Amino-3-(2,3-dihydro-1H-inden-5-yl)-N-{2-[2-(2,2-dioxido-2-thia-1,7-diazabicyclo[4.3.1]dec-9-yl)ethyl]-3-fluorophenyl}-3-(4-fluorophenyl)propanamide], the EC50 is 45 nM.
As for `N[C@H](C(=O)Nc1cccc(F)c1CCC1CNC2CCCS(=O)(=O)N1C2)[C@H](c1cncc(C(F)(F)F)c1)c1ccc(Cl)c(F)c1` (stereo partly drawn) [Example 227, (βS)-4-Chloro-N-{2-[2-(2,2-dioxido-2-thia-1,7-diazabicyclo[4.3.1]dec-9-yl)ethyl]-3-fluorophenyl}-3-fluoro-β-[5-(trifluoromethyl)pyridin-3-yl]-L-phenylalaninamide], the EC50 turned out to be 7.1 nM.
For `COC(=O)N[C@H](C(=O)Nc1ccc(F)c(F)c1CC[C@H]1CN[C@@H]2CCCS(=O)(=O)N1C2)[C@@H](c1ccc(F)cc1)C1C[C@@H](C)O[C@@H](C)C1` (stereo partly drawn) [Example 228, Methyl [(1S,2R)-2-[(2R,6S)-2,6-dimethyltetrahydro-2H-pyran-4-yl]-1-[(2-{2-[(6R,9S)-2,2-dioxido-2-thia-1,7-diazabicyclo[4.3.1]dec-9-yl]ethyl}-3,4-difluorophenyl)carbamoyl]-2-(4-fluorophenyl)ethyl]carbamate], the EC50 is 10 nM.
In the case of `COC(=O)CCCN[C@H](C(=O)N[C@H]1CCC[C@@H]1CC[C@H]1CN[C@@H]2CCCS(=O)(=O)N1C2)[C@@H](c1ccc(Cl)cc1)C1CCOC(C)(C)C1` (stereo partly drawn) [Example 229, methyl 4-{[(1S,2R)-2-(4-chlorophenyl)-2-(2,2-dimethyltetrahydro-2H-pyran-4-yl)-1-{[(1S,2R)-2-{2-[(6R,9S)-2,2-dioxido-2-thia-1,7-diazabicyclo[4.3.1]dec-9-yl]ethyl}cyclopentyl]carbamoyl}ethyl]amino} butanoate], the EC50 is 210 nM.
Regarding `CC1(C)CC([C@H](c2ccc(Cl)cc2)[C@H](NCCOCc2ccccc2)C(=O)N[C@H]2CCC[C@@H]2CC[C@H]2CN[C@@H]3CCCS(=O)(=O)N2C3)CCO1` (stereo partly drawn) [Example 230, (βR)-Nα-[2-(benzyloxy)ethyl]-4-chloro-β-(2,2-dimethyltetrahydro-2H-pyran-4-yl)-N-[(1S,2R)-2-{2-[(6R,9S)-2,2-dioxido-2-thia-1,7-diazabicyclo[4.3.1]dec-9-yl]ethyl}cyclopentyl]-L-phenylalaninamide], the EC50 was determined as 310 nM.
Take `CC1(C)CC([C@H](c2ccc(Cl)cc2)[C@H](NCCO)C(=O)N[C@H]2CCC[C@@H]2CC[C@H]2CN[C@@H]3CCCS(=O)(=O)N2C3)CCO1` (stereo partly drawn) [Example 231, (βR)-4-chloro-β-(2,2-dimethyltetrahydro-2H-pyran-4-yl)-N-[(1S,2R)-2-{2-[(6R,9S)-2,2-dioxido-2-thia-1,7-diazabicyclo[4.3.1]dec-9-yl]ethyl}cyclopentyl]-Nα-(2-hydroxyethyl)-L-phenylalaninamide]: the EC50 was determined as 310 nM.

The record behind these values is US10138255B2, “Piperazine derivatives as HIV protease inhibitors” (Merck Sharp & Dohme Corp., priority 2014, dated 2018).
